# pIC50: −log10 of the molar value.
# Tests used:
# [1] = molecular target: T1, Hypoxia-inducible factor 1-alpha (Homo sapiens, UniProt Q16665); assay: […] of HIF1 in human T47D cells after 30 mins by luciferase reporter gene assay
# [2] = molecular target: T1, Hypoxia-inducible factor 1-alpha; assay: […] of HIF1 in human T47D cells
# T1 sequence (Q16665 whole entry): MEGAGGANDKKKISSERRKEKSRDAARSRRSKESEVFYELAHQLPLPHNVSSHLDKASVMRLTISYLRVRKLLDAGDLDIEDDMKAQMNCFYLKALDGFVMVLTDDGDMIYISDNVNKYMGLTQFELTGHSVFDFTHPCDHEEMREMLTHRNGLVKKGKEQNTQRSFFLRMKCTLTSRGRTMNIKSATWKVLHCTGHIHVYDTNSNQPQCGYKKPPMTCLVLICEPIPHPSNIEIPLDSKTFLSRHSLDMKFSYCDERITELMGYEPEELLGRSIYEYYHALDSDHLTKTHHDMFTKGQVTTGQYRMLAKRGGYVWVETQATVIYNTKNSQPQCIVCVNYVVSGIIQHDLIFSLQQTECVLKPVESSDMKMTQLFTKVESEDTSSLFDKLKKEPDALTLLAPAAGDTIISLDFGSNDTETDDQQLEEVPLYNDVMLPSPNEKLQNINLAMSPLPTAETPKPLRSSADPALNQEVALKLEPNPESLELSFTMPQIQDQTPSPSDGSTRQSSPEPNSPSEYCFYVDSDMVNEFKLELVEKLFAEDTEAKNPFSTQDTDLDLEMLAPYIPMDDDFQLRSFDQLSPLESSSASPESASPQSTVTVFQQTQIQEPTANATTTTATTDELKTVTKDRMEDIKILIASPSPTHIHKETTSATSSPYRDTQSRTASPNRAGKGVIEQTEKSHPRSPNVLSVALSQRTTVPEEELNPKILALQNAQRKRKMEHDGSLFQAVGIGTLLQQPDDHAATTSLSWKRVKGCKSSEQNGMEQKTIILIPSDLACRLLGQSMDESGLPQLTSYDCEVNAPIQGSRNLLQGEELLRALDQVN
pIC50 [1],pIC50 [2],Compound
8.52,,COc1ccc([C@@H](O)[C@@H](C)Oc2ccc([C@@H]3CC[C@H](c4ccc(O[C@H](C)[C@H](O)c5ccc(OC)c(OC)c5)c(OC)c4)C3)cc2OC)cc1OC
,7.70,COc1ccc([C@@H](O)[C@@H](C)Oc2ccc([C@H]3O[C@H](c4ccc(OC)c(OC)c4)[C@H](C)[C@H]3C)cc2OC)cc1OC
